The results in this text go back to ChEMBL document CHEMBL2157926, “Peptoid ligands that bind selectively to phosphoproteins” (Bioorg Med Chem Lett, 2011).

Active and inactive are the calls of the source. The rule behind the calls is not given here. Non-standard residues stand in square brackets, D forms with d. Residues, ends and D or L forms follow the SMILES beside them. Gly(N-(CH2)3N-pyrrolidone) = O=C(O)CNCCCN1CCCC1=O; N(4-hydroxyphenethyl)Gly = O=C(O)CNCCc1ccc(O)cc1; NFurfurylGly = O=C(O)CNCc1ccco1; Nleu = CC(C)CNCC(=O)O; Nlys = NCCCCNCC(=O)O; Nme = COCCNCC(=O)O

Assay [1] has as its target T1, Bromodomain-containing protein 4 (Homo sapiens, UniProt O60885). In words: Binding affinity to modified phosphorylated human BRD4 phosphorylation-dependent interaction domain (598-785) expressed in Sf9 cells assessed as red fluorescence by SDS-PAGE method based one-bead binding assay.
The target of assay [2] is T1, Bromodomain-containing protein 4. As to the kind of experiment: Binding affinity to modified phosphorylated human BRD4 phosphorylation-dependent interaction domain (598-785) using fluorescein 5-maleimide by fluorescence polarization method.
Assay [3] shares this target. In words: Binding affinity to Flag tagged phosphorylated human BRD4 phosphorylation-dependent interaction domain (287-530) assessed as formation of cross-linking products at 0.5 uM in absence of sodium periodate using Neutravedin HRP by SDS-PAGE method.
The target is the same in assay [4]. In words: Binding affinity to modified phosphorylated human BRD4 phosphorylation-dependent interaction domain (287-530) expressed in Sf9 cells assessed as formation of cross-linking products in absence of sodium periodate using Neutravedin HRP by Western blot method.
The target is the same in assay [5]. In words: Binding affinity to modified phosphorylated human BRD4 phosphorylation-dependent interaction domain (287-530) expressed in Sf9 cells assessed as formation of cross-linking products in presence of sodium periodate using Neutravedin HRP by Western blot method.
For assay [6] the target is unchanged. In words: Binding affinity to Flag tagged phosphorylated human BRD4 phosphorylation-dependent interaction domain (287-530) assessed as formation of cross-linking products at 0.1 uM in presence of sodium periodate using Neutravedin HRP by SDS-PAGE method.
Assay [7] has the same target. In words: Binding affinity to Flag tagged phosphorylated human BRD4 phosphorylation-dependent interaction domain (287-530) assessed as formation of cross-linking products at 0.5 uM in presence of sodium periodate using Neutravedin HRP by SDS-PAGE method.

For `COCCN(CC(=O)N(CCCCN)CC(=O)N(CCCCN)CC(N)=O)C(=O)CN(CCCCN)C(=O)CN(CCc1ccc(O)cc1)C(=O)CNCC(C)C` (H-[Nleu][N(4-hydroxyphenethyl)Gly][Nlys][Nme][Nlys][Nlys]-NH2), the outcome in assay [1] was inactive. In assay [2], this compound displayed a Kd of 50 µM.

As to `COCCN(CC(=O)N(CCCCN)CC(=O)N(CCCCN)CC(=O)NC(Cc1ccc(O)c(O)c1)C(=O)N[C@H](CCC(=O)NCCCOCCOCCOCCCNC(=O)CCCC[C@@H]1SC[C@@H]2NC(=O)N[C@@H]21)C(N)=O)C(=O)CN(CCCCN)C(=O)CN(CCc1ccc(O)cc1)C(=O)CNCC(C)C` (stereo partly drawn), the result in assay [3], in assay [4] and in assay [6] was inactive. In addition, the result in assay [5] and in assay [7] was Active.

For `CC(C)CN(CC(=O)N(CCCCN)CC(=O)N(CC(=O)N(CCCCN)CC(=O)N(CCCCN)CC(N)=O)Cc1ccco1)C(=O)CNCCCN1CCCC1=O` (H-[Gly(N-(CH2)3N-pyrrolidone)][Nleu][Nlys][NFurfurylGly][Nlys][Nlys]-NH2), the result in assay [1] was Active.
